Measured values taken from US20080026076A1 (priority 2003, published 2008).
“And” between values parts separate entries of the source, which are not always exact repeats. Equal values may be shown once. Marks after values point to notes of the source that are not given here.

Columns and labels:
ERK1/2 = ERK1/2 signaling status in left ventricle, immunoblot; assay type: in vivo, rat; conditions: AAC rats fed supplemental quercetin
Protocol: Determination of ERK1/2 and Akt signaling status (FIGS. 4A & 4B). All extraction procedures were performed at 4° C. […] After homogenization, the samples were sonicated twice on ice and centrifuged at 11,000×g for 10 min. at 4° C. Supernatants were recovered and stored at −80° C. for subsequent immunoblotting. Protein concentration of whole heart cell lysate was determined using a Bio-Rad Protein assay (Bio-Rad, Hercules, Calif.) with bovine serum albumin (BSA) as a standard.

[1] = 30 mg/kg quercetin (p.o.) in rats (ref. 61); cited from earlier work
[2] = tested on: rats with abdominal aortic constriction (AAC) or sham operated; assay: Blood pressure in caudal and carotid arteries of conscious rats, abdominal aortic constriction pressure overload model; assay type: in vivo, rat; conditions: quercetin 1.5 g/kg chow, mean ± SEM
From the text: In this procedure the abdominal aorta is constricted to increase the afterload on the heart and produce pressure overload. […] Rats consumed this diet for 7 days. On the 8th day, 5 rats were surgically modeled for pressure overload by constricting the abdominal aorta to a diameter of 0.63 mm with a Weck hemoclip. The other 5 rats were sham operated (anesthetized and the aorta exposed, but not constricted). […] Another group of 10 rats were placed on a standard diet with no supplement and treated in an identical fashion with 5 surgically modeled for pressure overload and 5 sham operated. […] Two weeks after surgery post-sacrifice morphometric measurements are obtained by measuring total heart weight, left ventricle weight, and calculating heart:body weight and left ventricle:body weight ratios to assess cardiac mass and cardiac hypertrophy. […] An identical experimental procedure as described in Example I is used with n=10 rats per group (S, AAC, SQ, AAC-Q) for a total of 40 rats. […] Rats subjected to this protocol have very high carotid blood pressure. Rats are anesthetized, a catheter is placed in the caudal and carotid arteries, rats are allowed to regain consciousness for 60 minutes and blood pressures are measured.

[3] = Trial: body mass, heart rate, adverse effects; assay type: in vivo, human
Protocol: A 14-day washout period separated the two phases. Subjects were randomly assigned to begin either the quercetin or the placebo phase first. […] Clinic visits were conducted on overnight-fasted subjects in the morning hours at the beginning and end of the placebo and quercetin supplementation phases. Subjects were instructed not to exercise prior to their appointments. […] Blood pressure was a primary outcome variable and was obtained at each clinic visit by a trained observer using an Omron random zero automatic blood pressure analyzer as previously described (35). Each participant sat quietly for 5-10 minutes, after which their arm was placed at heart level and blood pressure and pulse rate were determined at least three times in 3-5 minute intervals. If blood pressure varied among these determinations by more than 10 mmHg, three additional trials were performed. The accumulated measurements then were averaged to determine overall systolic and diastolic pressure and pulse rate for each subject. Nearly 1000 patients were interviewed and screened for eligibility. […] From this initial screening, 204 were evaluated in more detail at a subsequent clinic visit to determine if all inclusion/exclusion criteria were met, and that blood pressure was within the study limits (FIG. 6). […]

[4] = Plasma quercetin in trial subjects (HPLC); assay type: in vivo; conditions: human, oral
Protocol: Blood samples were collected after blood pressure was measured. Blood was collected by antecubital venipuncture from fasting subjects into sodium heparin tubes (Becton Dickinson, N.J., USA). Collected blood was immediately stored on ice and centrifuged within 10 minutes at 4° C. for 15 minutes at 2500 g as previously described (36).
Supernatants then were extracted with ethyl acetate and injected into an HPLC Discovery C18 column. The mobile phase was 1% acetic acid (solvent A) and 95% acetonitrile in 1% phosphoric acid (solvent B). The gradient elution was solvent B from 10 to 85% in 20 minutes, holding for 5 minutes before returning back to 10% for conditioning. A visible detector with 365 nm was used.

[5] = tested on: prehypertensive and stage 1 hypertensive human subjects; assay: Randomized, placebo-controlled, double-blind crossover trial: blood pressure; assay type: in vivo; conditions: for Diastolic blood pressure, Endpoint / MAP, Endpoint / Systolic blood pressure, Endpoint: end of 4-week quercetin phase, 730 mg/day, mean ± SEM; for quercetin induced-lowering of systolic blood pressure: change from baseline
From the text: Systemic markers of oxidant load also were examined as secondary outcomes to determine if reductions in blood pressure were associated with lower indices of oxidative stress. This study was approved by the University of Utah Human Use Review Committee, University of Utah Institutional Review Board, and written informed consent was obtained from each participant. Recruitment efforts in the greater Salt Lake City area targeted males and females with prehypertension (120-139 mmHg systolic/80-89 mmHg diastolic) and Stage 1 hypertension (140-159 mmHg systolic/90-99 mmHg diastolic) as defined by The 7th Report Of The Joint National Committee On Prevention, Detection, Evaluation, And Treatment Of High Blood Pressure (32). […] The secondary hypothesis was that quercetin-induced reductions in blood pressure would be associated with lower indices of systemic oxidant stress. […] A 14-day washout period separated the two phases. Subjects were randomly assigned to begin either the quercetin or the placebo phase first. […] Clinic visits were conducted on overnight-fasted subjects in the morning hours at the beginning and end of the placebo and quercetin supplementation phases. Subjects were instructed not to exercise prior to their appointments. […] Blood pressure was a primary outcome variable and was obtained at each clinic visit by a trained observer using an Omron random zero automatic blood pressure analyzer as previously described (35). Each participant sat quietly for 5-10 minutes, after which their arm was placed at heart level and blood pressure and pulse rate were determined at least three times in 3-5 minute intervals. If blood pressure varied among these determinations by more than 10 mmHg, three additional trials were performed. The accumulated measurements then were averaged to determine overall systolic and diastolic pressure and pulse rate for each subject.

PKC α, βI, ε, δ = assay: PKC isoform activation in left ventricle, Western blots; assay type: in vivo, rat; conditions: between all groups (SH, AAC, SHQ, AACQ)
From the text: Following the experimental period, rats were sacrificed, left ventricles were homogenized, and cytosolic & membrane cell fractions isolated using differential centrifugation as previously described (Jalili et al., 1999). Immunobloting using standard protocols was used to assess PKC distribution. […] Increased abundance in membrane bound fractions is indicative of PKC activation.
Western blotting, transfer and densitometry: Electrophoresis and transfer of proteins to PVDF membranes were done as previously described (18, 19). Primary antibody directed against PKC α, βI, βII, δ, and ε (Santa Cruz Biotechnology, Santa Cruz, Calif.) were incubated overnight at 4° C. in a 1:1000 dilution. Antibodies directed against phospho ERK 1/2, phospho JNK, ph c-Raf (Cell Signal Technology, Beverly, Mass.), and phospho PKC P (Santa Cruz Biotechnology, Santa Cruz, Calif.), were incubated at a 1:1000 dilution for 48 h at 4° C. in 5% BSA Tris buffer with 0.05% Tween-20. Secondary antibody conjugated to horseradish peroxidase (goat anti rabbit, (Cell Signal Technology, Beverly, Mass.)) was incubated for 1 h at 1:10,000 dilution. Signals were visualized by enhanced chemiluminescence (Cell Signal Technology, Beverly, Mass.). Relative band density of immunoblots on film were measured with a scanner using NIH 1.63 image software (National Institutes of Health, Rockville, Md.).

## O=c1c(O)c(-c2ccc(O)c(O)c2)oc2cc(O)cc(O)c12 [quercetin, 3,5,7,3′,4′-pentahydroxyflavone]
ERK1/2
  activation of ERK1/2: reduced
[1]
  hypertensive response to i.v. administration of angiotensin II: significantly blunted the hypertensive response
[2]; AAC + Q: AAC rats
  Caudal MAP (mean arterial pressure): 108.0 ± 7.1 mmHg
  Diastolic Caudal blood pressure: 104.7 ± 5.5^b mmHg
  Gradient MAP: 18.3 ± 4.4^b mmHg
  Systolic Caudal blood pressure: 118.3 ± 6.4 mmHg
[2]; AAC + Q: AAC rats, untreated AAC 201.4 ± 11.4
  Systolic Carotid blood pressure: 158.8±10.3 mmHg and 158.8 ± 10.3^b mmHg
[2]; Sham + Q: sham operated rats
  Carotid MAP (mean arterial pressure): 113.5 ± 3.8^a mmHg
  Caudal MAP (mean arterial pressure): 100.6 ± 3.0 mmHg
  Diastolic Carotid blood pressure: 106.2 ± 4.8^a mmHg
  Diastolic Caudal blood pressure: 93.6 ± 3.2^a mmHg
  Diastolic Gradient (carotid vs caudal): 7.0 ± 2.9^a mmHg
  Gradient MAP: 7.2 ± 1.9^ab mmHg
  Systolic Carotid blood pressure: 128.2 ± 1.9^a mmHg
  Systolic Caudal blood pressure: 114.7 ± 3.2 mmHg
  Systolic Gradient (carotid vs caudal): 7.3 ± 1.9^a mmHg
[3]; 730 mg quercetin/day, 4 weeks, during the course of the study
  adverse effects: No adverse effects
[3]; throughout the study (data not shown)
  Heart rate: unchanged
[4]
  concentration at 1 week after end of supplementation: 190 ± 9 ng/mL
[4]; 730 mg/day for 4 weeks, fasted, 235±35 after placebo
  concentration at 4 weeks: 480 ± 64 ng/mL
[5]; prehypertensive (n=22), baseline 85 ± 1
  Diastolic blood pressure, Endpoint: 83 ± 2 mmHg
[5]; prehypertensive (n=22), baseline 101 ± 1
  MAP, Endpoint: 98 ± 2 mmHg
[5]; prehypertensive (n=22), baseline 133 ± 2
  Systolic blood pressure, Endpoint: 128 ± 3 mmHg
[5]; prehypertensive
  quercetin induced-lowering of systolic blood pressure: −5.2 mmHg
[5]; stage 1 hypertensive (n=22), baseline 97 ± 1
  Diastolic blood pressure, Endpoint: 92 ± 2 mmHg
[5]; stage 1 hypertensive (n=22), baseline 113 ± 1
  MAP, Endpoint: 108 ± 2 mmHg
[5]; stage 1 hypertensive (n=22), baseline 145 ± 2
  Systolic blood pressure, Endpoint: 138 ± 2 mmHg
[5]; stage 1 hypertensive
  quercetin induced-lowering of systolic blood pressure: −7.2 mmHg
[5]; subjects that received quercetin treatment first
  carryover antihypertensive effect: mean arterial pressure at baseline of quercetin phase vs placebo phase: No differences were found
PKC α, βI, ε, δ
  Activation of PKC α, βI, ε, or δ isoforms: no significant differences
